Data set [1] is described as follows: Half-life in human serum by LC-SWATH-MS analysis. Type of data set: ADME, cell-free.
For a further data set, the target named is VEGA-NRP1 (Homo sapiens, UniProt O14786). Kind of data set: Inhibition of human biotinylated-VEGFA165 binding to recombinant human NRP-1 measured after 2 hrs by chemiluminescent based ELISA. Type of data set: protein assay. To be noted: read-out: IC50. On the technique in general: ELISA stands for enzyme-linked immunosorbent assay.
The target of the next data set is VEGA-NRP1 (Homo sapiens) (UniProt P15692+O14786). Description: Inhibition of biotinylated-VEGFA165 (unknown origin) binding to C-terminal 6-His tagged human NRP-1 (Phe22 to Lys644 residues) expressed in mouse NS0 cells at 100 uM measured after 2 hrs by chemiluminescence assay relative to control. Type of data set: cell-based.
For data set [2], the target named is Neuropilin-1 (Homo sapiens) (UniProt O14786). Description: Binding affinity to NRP-1 in human MDA-MB-231 cells at 12.5 to 100 ug/ml measured after 15 mins by FITC-streptavidin staining based flow cytometry analysis. Type of data set: cell-based. To be noted: dose 12.5-100 µg/ml. A general note: In flow cytometry, cells or beads pass a laser one at a time.
The test system of data set [3] is MDA-MB-231. Kind of data set: Increase in NRP-1 expression in human MDA-MB-231 cell membrane at 5.9 uM preincubated for 15 mins at 4 degC followed by compound washout and further incubated for 60 mins with subsequent addition of compound at 37 degC by FITC-streptavidin staining based flow cytometry analysis. Type of data set: functional. To be noted: time 75.0 min.

The subject of data set [4] is MDA-MB-231. Kind of data set: Increase in NRP-1 expression in human MDA-MB-231 cell membrane at 59 uM preincubated for 15 mins at 4 degC followed by compound washout and further incubated for 5 mins with subsequent addition of compound at 37 degC by FITC-streptavidin staining based flow cytometry analysis. Type of data set: functional. The conditions noted are these: time 20.0 min.

Data set [5] deals with Neuropilin-1 (Homo sapiens) (UniProt O14786). Kind of data set: Binding affinity to NRP-1 in human MDA-MB-435 cells at 12.5 to 100 ug/ml measured after 15 mins by FITC-streptavidin staining based flow cytometry analysis. Type of data set: cell-based. To be noted: dose 12.5-100 µg/ml.
Data set [6] concerns Cell membrane. Kind of data set: Binding affinity to human MDA-MB-231 cell membrane at 59 uM measured after 15 mins at 4 degC by Alexa Fluor 594-streptavidin staining based fluorescence microscopy. Type of data set: subcellular.
In data set [7] the test system is Cell membrane. Kind of data set: Binding affinity to human MDA-MB-231 cell membrane at 59 uM preincubated for 15 mins at 4 degC followed by compound washout and further incubated for 5 mins with subsequent addition of compound at 37 degC by Alexa Fluor 594-streptavidin staining based fluorescence microscopy. Type of data set: subcellular. To be noted: time 20.0 min.

The subject of data set [8] is Cell membrane. Description: Binding affinity to human MDA-MB-231 cell membrane at 59 uM preincubated for 15 mins at 4 degC followed by compound washout and further incubated for 5 mins with subsequent addition of compound at 37 degC by FITC-streptavidin staining based flow cytometry analysis. Type of data set: subcellular. The conditions noted are these: time 20.0 min.

In data set [9] the test system is MDA-MB-231. Description: Increase in NRP-1 expression in human MDA-MB-231 cell membrane at 59 uM preincubated for 15 mins at 4 degC followed by compound washout and further incubated for 60 mins with subsequent addition of compound at 37 degC by FITC-streptavidin staining based flow cytometry analysis. Type of data set: functional. The conditions noted are these: time 75.0 min.

The source made the active and inactive calls. *1 amine or outer side, *2 acyl side, *3 side chain or, on linkers, in order; H or OH if unused. Where a SMILES comes first, the peptide text is derived from it. Side-chain parts run from the residue outwards. [ ]: non-standard residue; d: D form. The star is where a group is joined. ξ: configuration not given here. Biotin = O=C1N[C@H]2[C@H](CS[C@H]2CCCCC(=O)*)N1; Oic(3aξ,7aξ) = O=C(O)[C@@H]1CC2CCCCC2N1; X1 = O=C([C@H](CCCS)N[*:1])[*:2]; hArg = N=C(N)NCCCC[C@H](N)C(=O)O; hCys = N[C@@H](CCS)C(=O)O; X2 = N[C@@H](CCCS)C(=O)*; Aun = NCCCCCCCCCCC(=O)O; Dab = NCC[C@H](N)C(=O)O; Dap = NC[C@H](N)C(=O)O; X3 = CSC[C@H](N)C(=O)*; ξK = NCCCCC(N)C(=O)O; Mpa = O=C(O)CCS

Chain of VEGA-NRP1 (P15692 whole entry): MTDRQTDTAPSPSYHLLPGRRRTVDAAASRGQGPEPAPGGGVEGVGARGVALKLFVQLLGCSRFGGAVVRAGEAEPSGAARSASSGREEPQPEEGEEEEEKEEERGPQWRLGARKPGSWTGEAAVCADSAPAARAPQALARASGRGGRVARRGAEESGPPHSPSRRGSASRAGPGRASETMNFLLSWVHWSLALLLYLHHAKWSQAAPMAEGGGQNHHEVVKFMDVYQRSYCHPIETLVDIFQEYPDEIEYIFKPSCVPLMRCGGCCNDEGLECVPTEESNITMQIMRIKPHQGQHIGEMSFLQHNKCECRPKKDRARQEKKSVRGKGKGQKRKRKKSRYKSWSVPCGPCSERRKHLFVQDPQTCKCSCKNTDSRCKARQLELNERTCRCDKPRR
Chain of VEGA-NRP1 (O14786 whole entry): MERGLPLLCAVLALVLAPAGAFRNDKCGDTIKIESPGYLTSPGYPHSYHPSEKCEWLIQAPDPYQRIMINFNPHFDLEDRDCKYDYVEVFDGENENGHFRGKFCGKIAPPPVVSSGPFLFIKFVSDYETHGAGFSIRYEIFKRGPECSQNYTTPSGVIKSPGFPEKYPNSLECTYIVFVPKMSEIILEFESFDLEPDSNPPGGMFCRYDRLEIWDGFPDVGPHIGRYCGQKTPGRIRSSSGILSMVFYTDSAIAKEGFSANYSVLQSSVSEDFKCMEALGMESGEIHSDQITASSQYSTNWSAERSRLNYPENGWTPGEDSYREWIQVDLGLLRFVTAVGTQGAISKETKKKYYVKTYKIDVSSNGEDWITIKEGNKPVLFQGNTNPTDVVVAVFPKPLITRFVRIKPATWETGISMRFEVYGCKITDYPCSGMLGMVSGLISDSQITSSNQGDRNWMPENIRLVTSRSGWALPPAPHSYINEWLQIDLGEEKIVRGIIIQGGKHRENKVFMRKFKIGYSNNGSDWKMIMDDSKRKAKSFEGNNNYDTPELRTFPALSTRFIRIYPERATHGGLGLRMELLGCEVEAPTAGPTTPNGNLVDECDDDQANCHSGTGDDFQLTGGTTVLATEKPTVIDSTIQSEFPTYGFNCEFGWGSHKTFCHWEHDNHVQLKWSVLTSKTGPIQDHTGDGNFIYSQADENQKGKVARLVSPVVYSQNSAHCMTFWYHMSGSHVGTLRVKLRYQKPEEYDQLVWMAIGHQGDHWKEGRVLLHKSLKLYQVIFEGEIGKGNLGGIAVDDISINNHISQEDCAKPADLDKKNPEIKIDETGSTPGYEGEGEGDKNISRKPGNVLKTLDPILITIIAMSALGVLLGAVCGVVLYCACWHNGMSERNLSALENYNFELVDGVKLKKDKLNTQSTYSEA
Chain of Neuropilin-1 (Homo sapiens) (O14786 whole entry): as above
Chain of VEGA-NRP1 (Homo sapiens) (O14786 22-923 partner limits assumed): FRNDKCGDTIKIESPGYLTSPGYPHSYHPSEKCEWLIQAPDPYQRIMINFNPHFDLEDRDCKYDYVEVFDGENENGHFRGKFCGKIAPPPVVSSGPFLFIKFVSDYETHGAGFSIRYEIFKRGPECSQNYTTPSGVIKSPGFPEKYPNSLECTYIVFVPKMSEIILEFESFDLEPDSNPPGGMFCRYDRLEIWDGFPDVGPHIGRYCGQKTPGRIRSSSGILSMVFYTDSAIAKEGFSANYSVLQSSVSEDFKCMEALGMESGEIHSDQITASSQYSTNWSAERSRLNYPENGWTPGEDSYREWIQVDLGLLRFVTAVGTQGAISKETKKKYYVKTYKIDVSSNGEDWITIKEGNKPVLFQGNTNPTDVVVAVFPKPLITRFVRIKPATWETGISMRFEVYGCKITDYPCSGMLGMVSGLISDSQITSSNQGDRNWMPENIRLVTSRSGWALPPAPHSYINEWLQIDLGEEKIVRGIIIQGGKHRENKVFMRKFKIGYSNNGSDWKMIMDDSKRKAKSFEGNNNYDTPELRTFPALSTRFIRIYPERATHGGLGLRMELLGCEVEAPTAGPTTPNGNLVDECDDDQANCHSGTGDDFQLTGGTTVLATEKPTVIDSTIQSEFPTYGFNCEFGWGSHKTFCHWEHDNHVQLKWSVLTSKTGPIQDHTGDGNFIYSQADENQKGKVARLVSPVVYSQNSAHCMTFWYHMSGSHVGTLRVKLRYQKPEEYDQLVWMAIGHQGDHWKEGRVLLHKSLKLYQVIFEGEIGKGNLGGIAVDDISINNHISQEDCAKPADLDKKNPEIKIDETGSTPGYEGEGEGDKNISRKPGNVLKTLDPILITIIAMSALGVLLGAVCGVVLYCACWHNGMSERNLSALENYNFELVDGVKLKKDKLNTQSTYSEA
Chain of VEGA-NRP1 (Homo sapiens) (P15692 whole entry): as the sequence (P15692 whole entry) above

The term half-life denotes the time needed for the level to fall by half in the phase considered. High values mean slow decline, low ones rapid decline. What is called IC50 is the point on the concentration scale where inhibition reaches its midpoint. With `CC[C@H](N)C(=O)N[C@@H](CCCCNC(=O)[C@@H](N)CCCCNC(=N)N)C(=O)N[C@@H](CCN)C(=O)N1C2CCCCC2C[C@H]1C(=O)N[C@@H](CCCNC(=N)N)C(=O)O` (stereo partly drawn) (HELM PEPTIDE1{[Abu].K.[Dab].[O=C([C@@H]1CC2CCCCC2N1[*:1])[*:2]].R}|PEPTIDE2{[N=C(N)NCCCC[C@H](N)C(=O)[*:2]]}$PEPTIDE1,PEPTIDE2,2:R3-1:R2$$$V2.0), in data set [1], the half-life was 2 h. Besides, the concentration for half-maximal inhibition (IC50) on VEGA-NRP1 worked out at 2.41 µM.

Turning to `CSC[C@H](N)C(=O)N[C@@H](CCCCNC(=O)[C@@H](N)CCCCNC(=N)N)C(=O)N[C@@H](CCN)C(=O)N1C2CCCCC2C[C@H]1C(=O)N[C@@H](CCCNC(=N)N)C(=O)O` (stereo partly drawn) (H-C(Me)K(hArg)[Dab][Oic(3aξ,7aξ)]R-OH), the IC50 at VEGA-NRP1 is 2.48 µM.

One may read the inhibition as how much of the control response was suppressed. A low value points to little suppression. Molecule `C[C@@H](O)[C@H](NC(=O)[C@H](CCCNC(=N)N)NC(=O)[C@@H](N)CCC(=O)O)C(=O)N[C@@H](CS)C(=O)N[C@@H](CCCNC(=N)N)C(=O)N[C@@H](CS)C(=O)N[C@@H](CC(=O)O)C(=O)N[C@@H](CCCCN)C(=O)N1CCC[C@H]1C(=O)N[C@@H](CCCNC(=N)N)C(=O)N[C@@H](CCCNC(=N)N)C(=O)O` (H-ERTCRCDKPRR-OH) came in with an inhibition on VEGA-NRP1 (Homo sapiens) of 96%.

As for `N=C(N)NCCCC[C@H](NC(=O)[C@@H](N)CO)C(=O)NCCCC[C@H](N)C(=O)N[C@@H](CCN)C(=O)N1C2CCCCC2C[C@H]1C(=O)N[C@@H](CCCNC(=N)N)C(=O)O` (stereo partly drawn) (HELM PEPTIDE1{K.[Dab].[O=C([C@@H]1CC2CCCCC2N1[*:1])[*:2]].R}|PEPTIDE2{S.[N=C(N)NCCCC[C@H](N[*:1])C(=O)[*:2]]}$PEPTIDE1,PEPTIDE2,1:R3-2:R2$$$V2.0), on VEGA-NRP1, the IC50 turned out to be 0.81 µM.

On to H-CDKPRR-OH, for which, on VEGA-NRP1 (Homo sapiens), the inhibition worked out at 96%.

As to `N=C(N)NCCCC[C@H](N)C(=O)NCCCC[C@H](NC(=O)[C@@H](N)CN)C(=O)N[C@@H](CCN)C(=O)N1C2CCCCC2C[C@H]1C(=O)N[C@@H](CCCNC(=N)N)C(=O)O` (stereo partly drawn) (H-[Dap]K(hArg)[Dab][Oic(3aξ,7aξ)]R-OH), at VEGA-NRP1, the 50% inhibitory concentration (IC50) came to 0.44 µM.

As to `CSC[C@H](N)C(=O)N[C@@H](CCCCNC(=N)N)C(=O)NCCCC[C@H](N)C(=O)N[C@@H](CCN)C(=O)N1C2CCCCC2C[C@H]1C(=O)N[C@@H](CCCNC(=N)N)C(=O)O` (stereo partly drawn) (H-K([hArg-X3])[Dab][Oic(3aξ,7aξ)]R-OH), the IC50 at VEGA-NRP1 worked out at 2.82 µM.

For the molecule `N=C(N)NCCCC[C@H](N)C(=O)NCCCC[C@H](NC(=O)[C@@H](N)CCCS)C(=O)N[C@@H](CCN)C(=O)N1C2CCCCC2C[C@H]1C(=O)N[C@@H](CCCNC(=N)N)C(=O)O` (stereo partly drawn) (H-[X1]K(hArg)[Dab][Oic(3aξ,7aξ)]R-OH), the IC50 at VEGA-NRP1 came to 0.89 µM.

Turning to `N=C(N)NCCCC[C@H](NC(=O)[C@@H](N)CN)C(=O)NCCCC[C@H](N)C(=O)N[C@@H](CCN)C(=O)N1C2CCCCC2C[C@H]1C(=O)N[C@@H](CCCNC(=N)N)C(=O)O` (stereo partly drawn) (H-K([hArg-Dap])[Dab][Oic(3aξ,7aξ)]R-OH), the IC50 at VEGA-NRP1 stood at 0.33 µM.

Consider `N=C(N)NCCCC[C@H](NC(=O)[C@@H](N)CS)C(=O)NCCCCC(NC(=O)CCCCCCCCCCNC(=O)CCCC[C@@H]1SC[C@@H]2NC(=O)N[C@@H]21)C(=O)N[C@@H](CCN)C(=O)N1C2CCCCC2C[C@H]1C(=O)N[C@@H](CCCNC(=N)N)C(=O)O` (stereo partly drawn) ({Biotin-Aun}-[ξK]([hArg-Cys])[Dab][Oic(3aξ,7aξ)]R-OH), for which the result (in [2]; in the data set on MDA-MB-231 [4]; in the data set with Cell membrane [6]; in the data set with Cell membrane [7]; with Cell membrane [8]; in the data set on MDA-MB-231 [9]) was Active. In addition, the result (with MDA-MB-231 [3]; in data set [5]) was inactive.

Turning to `N=C(N)NCCCC[C@H](NC(=O)CCCCCCCCCCNC(=O)CCCC[C@@H]1SC[C@@H]2NC(=O)N[C@@H]21)C(=O)NCCCC[C@H](NC(=O)[C@@H](N)CS)C(=O)N[C@@H](CCN)C(=O)N1C2CCCCC2C[C@H]1C(=O)N[C@@H](CCCNC(=N)N)C(=O)O` (stereo partly drawn) (H-CK([hArg-Aun-Biotin])[Dab][Oic(3aξ,7aξ)]R-OH), the outcome (in data set [2]; with MDA-MB-231 [4]; in the data set with Cell membrane [6]; in the data set with Cell membrane [7]; in the data set with Cell membrane [8]; with MDA-MB-231 [9]) was Active. Further, the outcome (in the data set on MDA-MB-231 [3]; in data set [5]) was inactive.

`N=C(N)NCCCC[C@H](NC(=O)[C@@H](N)CCS)C(=O)NCCCC[C@H](N)C(=O)N[C@@H](CCN)C(=O)N1C2CCCCC2C[C@H]1C(=O)N[C@@H](CCCNC(=N)N)C(=O)O` (stereo partly drawn) (H-K([hArg-hCys])[Dab][Oic(3aξ,7aξ)]R-OH): on VEGA-NRP1, the half-maximal inhibitory concentration (IC50) turned out to be 0.63 µM.

Take `N=C(N)NCCCC[C@H](NC(=O)CCS)C(=O)NCCCC[C@H](N)C(=O)N[C@@H](CCN)C(=O)N1C2CCCCC2C[C@H]1C(=O)N[C@@H](CCCNC(=N)N)C(=O)O` (stereo partly drawn) (H-K([hArg-Mpa])[Dab][Oic(3aξ,7aξ)]R-OH): the half-maximal inhibitory concentration (IC50) at VEGA-NRP1 amounted to 2.17 µM.

Consider `N=C(N)NCCCC[C@H](N)C(=O)NCCCC[C@H](NC(=O)[C@@H](N)CO)C(=O)N[C@@H](CCN)C(=O)N1C2CCCCC2C[C@H]1C(=O)N[C@@H](CCCNC(=N)N)C(=O)O` (stereo partly drawn) (HELM PEPTIDE1{S.K.[Dab].[O=C([C@@H]1CC2CCCCC2N1[*:1])[*:2]].R}|PEPTIDE2{[N=C(N)NCCCC[C@H](N)C(=O)[*:2]]}$PEPTIDE1,PEPTIDE2,2:R3-1:R2$$$V2.0), for which the 50% inhibitory concentration (IC50) at VEGA-NRP1 was found to be 1.54 µM.

`N=C(N)NCCCC[C@H](N)C(=O)NCCCC[C@H](NC(=O)CCS)C(=O)N[C@@H](CCN)C(=O)N1C2CCCCC2C[C@H]1C(=O)N[C@@H](CCCNC(=N)N)C(=O)O` (stereo partly drawn) ([Mpa]K(hArg)[Dab][Oic(3aξ,7aξ)]R-OH): at VEGA-NRP1, the half-maximal inhibitory concentration (IC50) stood at 1.13 µM.

In the case of `N=C(N)NCCCC[C@H](NC(=O)[C@@H](N)CCCS)C(=O)NCCCC[C@H](N)C(=O)N[C@@H](CCN)C(=O)N1C2CCCCC2C[C@H]1C(=O)N[C@@H](CCCNC(=N)N)C(=O)O` (stereo partly drawn) (H-K([hArg-X2])[Dab][Oic(3aξ,7aξ)]R-OH), the 50% inhibitory concentration (IC50) at VEGA-NRP1 amounted to 1.33 µM.

With `N=C(N)NCCCC[C@H](N)C(=O)NCCCC[C@H](NC(=O)[C@@H](N)CCS)C(=O)N[C@@H](CCN)C(=O)N1C2CCCCC2C[C@H]1C(=O)N[C@@H](CCCNC(=N)N)C(=O)O` (stereo partly drawn) (H-[hCys]K(hArg)[Dab][Oic(3aξ,7aξ)]R-OH), on VEGA-NRP1, the IC50 stood at 0.7 µM.

With `CC[C@H](N)C(=O)N[C@@H](CCCCNC(=N)N)C(=O)NCCCC[C@H](N)C(=O)N[C@@H](CCN)C(=O)N1C2CCCCC2C[C@H]1C(=O)N[C@@H](CCCNC(=N)N)C(=O)O` (stereo partly drawn) (HELM PEPTIDE1{K.[Dab].[O=C([C@@H]1CC2CCCCC2N1[*:1])[*:2]].R}|PEPTIDE2{[Abu].[N=C(N)NCCCC[C@H](N[*:1])C(=O)[*:2]]}$PEPTIDE1,PEPTIDE2,1:R3-2:R2$$$V2.0), the 50% inhibitory concentration (IC50) on VEGA-NRP1 was 2.48 µM.

For the origin of these results see ChEMBL document CHEMBL5365540, “Structure-activity relationship studies and biological properties evaluation of peptidic NRP-1 ligands: Investigation of N-terminal cysteine importance” (Bioorg Med Chem, 2023).
